Assay results taken from PubChem BioAssay (NCI).
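Five concentrations, 48 hours, 96-well plates. Here, GI50 denotes the concentration required for 50% inhibition of growth. TGI marks complete inhibition of growth.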

Tests used:
Test in all cases: inhibition of tumour cell growth, NCI panel, 48 h
NCI-H23 lung = test system: NCI-H23 lung
SN12C renal = test system: SN12C renal
HOP-62 NSCLC = test system: HOP-62 NSCLC
OVCAR-5 ovarian = test system: OVCAR-5 ovarian
SK-MEL-5 melanoma = test system: SK-MEL-5 melanoma
MOLT-4 leukemia = test system: MOLT-4 leukemia
MDA-MB-435 = test system: MDA-MB-435
MCF7 breast = test system: MCF7 breast
EKVX NSCLC = test system: EKVX NSCLC
NCI/ADR-RES ovarian = test system: NCI/ADR-RES ovarian
OVCAR-3 ovarian = test system: OVCAR-3 ovarian
HCC-2998 colon = test system: HCC-2998 colon
RPMI-8226 leukemia = test system: RPMI-8226 leukemia
LOX IMVI melanoma = test system: LOX IMVI melanoma
HOP-92 NSCLC = test system: HOP-92 NSCLC
OVCAR-8 ovarian = test system: OVCAR-8 ovarian
SK-MEL-2 melanoma = test system: SK-MEL-2 melanoma
COLO 205 colon = test system: COLO 205 colon
PC-3 prostate = test system: PC-3 prostate
NCI-H226 lung = test system: NCI-H226 lung
RXF 393 renal = test system: RXF 393 renal
SF-295 CNS = test system: SF-295 CNS
SR leukemia = test system: SR leukemia
DU-145 prostate = test system: DU-145 prostate
A549 NSCLC = test system: A549 NSCLC
NCI-H522 lung = test system: NCI-H522 lung
T-47D breast = test system: T-47D breast
MALME-3M melanoma = test system: MALME-3M melanoma
TK-10 renal = test system: TK-10 renal
HCT-15 colon = test system: HCT-15 colon
HS 578T breast = test system: HS 578T breast
SF-268 CNS = test system: SF-268 CNS
SF-539 CNS = test system: SF-539 CNS
KM12 colon = test system: KM12 colon
CCRF-CEM leukemia = test system: CCRF-CEM leukemia
UACC-257 melanoma = test system: UACC-257 melanoma
SW-620 colon = test system: SW-620 colon
OVCAR-4 ovarian = test system: OVCAR-4 ovarian
HCT-116 colon = test system: HCT-116 colon
IGROV1 ovarian = test system: IGROV1 ovarian
SNB-75 CNS = test system: SNB-75 CNS
SNB-19 CNS = test system: SNB-19 CNS
SK-OV-3 ovarian = test system: SK-OV-3 ovarian
HL-60(TB) leukemia = test system: HL-60(TB) leukemia
M14 melanoma = test system: M14 melanoma
A498 renal = test system: A498 renal
BT-549 breast = test system: BT-549 breast
K-562 leukemia = test system: K-562 leukemia
786-0 renal = test system: 786-0 renal
CAKI-1 renal = test system: CAKI-1 renal
UO-31 renal = test system: UO-31 renal
UACC-62 melanoma = test system: UACC-62 melanoma
MDA-MB-231 breast = test system: MDA-MB-231 breast
ACHN renal = test system: ACHN renal
HT29 colon = test system: HT29 colon
SK-MEL-28 melanoma = test system: SK-MEL-28 melanoma
U251 CNS = test system: U251 CNS
NCI-H460 lung = test system: NCI-H460 lung

## COc1cc(N2CCN(C(C)C)CC2)ccc1Nc1nc(Nc2cccc3ncccc23)c2cc[nH]c2n1
NCI-H23 lung
  GI50: 5.7 µM
  TGI: > 25 µM
SN12C renal
  GI50: 15.7 µM
  TGI: > 25 µM
HOP-62 NSCLC
  GI50: 3.18 µM
  TGI: > 14.9 µM
OVCAR-5 ovarian
  GI50: 2.5 µM
  TGI: > 25 µM
SK-MEL-5 melanoma
  GI50: 3.41 µM
  TGI: 6.66 µM
MOLT-4 leukemia
  GI50: 7.51 µM
  TGI: > 23.2 µM
MDA-MB-435
  GI50: 5.47 µM
  TGI: > 25 µM
MCF7 breast
  GI50: 1.3 µM
  TGI: > 25 µM
EKVX NSCLC
  GI50: 8.83 µM
  TGI: > 25 µM
NCI/ADR-RES ovarian
  GI50: 8.45 µM
  TGI: > 25 µM
OVCAR-3 ovarian
  GI50: 4.75 µM
  TGI: 10.6 µM
HCC-2998 colon
  GI50: 3.17 µM
  TGI: 9.77 µM
RPMI-8226 leukemia
  GI50: 5.68 µM
  TGI: 17.8 µM
LOX IMVI melanoma
  GI50: 3.3 µM
  TGI: 6.95 µM
HOP-92 NSCLC
  GI50: 0.464 µM
  TGI: 2.85 µM
OVCAR-8 ovarian
  GI50: 5.86 µM
  TGI: > 22.7 µM
SK-MEL-2 melanoma
  GI50: 4.63 µM
  TGI: 11.5 µM
COLO 205 colon
  GI50: 1.38 µM
  TGI: 5.96 µM
PC-3 prostate
  GI50: 8.99 µM
  TGI: > 25 µM
NCI-H226 lung
  GI50: 4.82 µM
  TGI: > 25 µM
RXF 393 renal
  GI50: 3.93 µM
  TGI: 9.38 µM
SF-295 CNS
  GI50: 5.46 µM
  TGI: 17.9 µM
SR leukemia
  GI50: 1.14 µM
  TGI: > 11.1 µM
DU-145 prostate
  GI50: 6.55 µM
  TGI: 24.6 µM
A549 NSCLC
  GI50: 2.92 µM
  TGI: 15.6 µM
NCI-H522 lung
  GI50: 3.97 µM
  TGI: 9.05 µM
T-47D breast
  GI50: 3.8 µM
  TGI: 13.6 µM
MALME-3M melanoma
  GI50: 4.52 µM
  TGI: 9.64 µM
TK-10 renal
  GI50: 3.97 µM
  TGI: 19.4 µM
HCT-15 colon
  GI50: 4.35 µM
  TGI: > 21.6 µM
HS 578T breast
  GI50: 5.42 µM
  TGI: 24.3 µM
SF-268 CNS
  GI50: 5.21 µM
  TGI: 15.4 µM
SF-539 CNS
  GI50: 3.94 µM
  TGI: 8.15 µM
KM12 colon
  GI50: 5.56 µM
  TGI: > 25 µM
CCRF-CEM leukemia
  GI50: 6.36 µM
  TGI: > 22.4 µM
UACC-257 melanoma
  GI50: 3.67 µM
  TGI: 8.14 µM
SW-620 colon
  GI50: 3.6 µM
  TGI: 14.9 µM
OVCAR-4 ovarian
  GI50: 7.54 µM
  TGI: > 25 µM
HCT-116 colon
  GI50: 3.04 µM
  TGI: 7.11 µM
IGROV1 ovarian
  GI50: 12.1 µM
  TGI: > 25 µM
SNB-75 CNS
  GI50: 3.99 µM
  TGI: > 15.4 µM
SNB-19 CNS
  GI50: 8.99 µM
  TGI: > 25 µM
SK-OV-3 ovarian
  GI50: 5.58 µM
  TGI: 19.1 µM
HL-60(TB) leukemia
  GI50: 3.26 µM
  TGI: 14.8 µM
M14 melanoma
  GI50: 4.13 µM
  TGI: 8.04 µM
A498 renal
  GI50: 0.811 µM
  TGI: 12 µM
BT-549 breast
  GI50: 4.75 µM
  TGI: 13.6 µM
K-562 leukemia
  GI50: 5.34 µM
  TGI: 18.4 µM
786-0 renal
  GI50: 5.27 µM
  TGI: 12.4 µM
CAKI-1 renal
  GI50: 10 µM
  TGI: > 25 µM
UO-31 renal
  GI50: 3.79 µM
  TGI: 11.6 µM
UACC-62 melanoma
  GI50: 4.06 µM
  TGI: 8.53 µM
MDA-MB-231 breast
  GI50: 4.37 µM
  TGI: 11 µM
ACHN renal
  GI50: 7.45 µM
  TGI: > 25 µM
HT29 colon
  GI50: 1.5 µM
  TGI: 5.54 µM
SK-MEL-28 melanoma
  GI50: 4.77 µM
  TGI: 9.56 µM
U251 CNS
  GI50: 4.54 µM
  TGI: 15.1 µM
NCI-H460 lung
  GI50: 6.16 µM
  TGI: > 23.5 µM
